{"source": "ChEMBL document CHEMBL4619763", "about": "(J Nat Prod, 2020)", "key": {"Rattus norvegicus [1]": {"tested_on": "Rattus norvegicus", "experiment": "Diuretic activity in normotensive Wistar rat assessed as increase in urinary sodium excretion at 0.1 mg/kg, po administered via gavage for 7 days", "assay_type": "functional, organism-based"}, "Rattus norvegicus [2]": {"tested_on": "Rattus norvegicus", "experiment": "Diuretic activity in normotensive Wistar rat assessed as urinary calcium excretion at 0.1 mg/kg, po administered via gavage after 8 hrs in presence of atropine (reference value: 5.93 to 6.87 mg/dl)", "assay_type": "functional"}, "Rattus norvegicus [3]": {"tested_on": "Rattus norvegicus", "experiment": "Diuretic activity in normotensive Wistar rat assessed as urinary sodium excretion at 0.01 mg/kg, po administered via gavage after 8 hrs (reference value: 61.82 to 80.81 mmol/L)", "assay_type": "functional"}, "[4]": {"experiment": "Toxicity in spontaneous hypertensive Wistar rat assessed as changes in plasma calcium level at 0.1 mg/kg, po administered for 7 days", "assay_type": "organism-based", "conditions": "in vivo, 168 h"}, "Rattus norvegicus [5]": {"tested_on": "Rattus norvegicus", "experiment": "Diuretic activity in normotensive Wistar rat assessed as urinary chloride excretion at 0.1 mg/kg, ip […] after 8 hrs (reference value: 103.30 +/- 10.25 mmol/L)", "assay_type": "functional"}, "Rattus norvegicus [6]": {"tested_on": "Rattus norvegicus", "experiment": "Diuretic activity in normotensive Wistar rat assessed as urinary sodium excretion at 0.1 mg/kg, po administered via gavage after 8 hrs (reference value: 61.82 to 80.81 mmol/L)", "assay_type": "functional"}, "Rattus norvegicus [7]": {"tested_on": "Rattus norvegicus", "experiment": "Diuretic activity in normotensive Wistar rat assessed as urinary calcium excretion at 1 mg/kg, ip […] after 8 hrs (reference value: 5.28 +/- 0.09 mg/dl)", "assay_type": "functional"}, "Rattus norvegicus [8]": {"tested_on": "Rattus norvegicus", "experiment": "Diuretic activity in normotensive Wistar rat assessed as increase in urine volume excretion at 1 mg/kg, ip a after 6 hr", "assay_type": "functional, organism-based"}, "Rattus norvegicus [9]": {"tested_on": "Rattus norvegicus", "experiment": "Diuretic activity in normotensive Wistar rat assessed as urinary sodium excretion at 0.01 mg/kg, ip after 8 hrs (reference value: 81.56 +/- 13.10 mmol/L)", "assay_type": "functional"}, "Rattus norvegicus [10]": {"tested_on": "Rattus norvegicus", "experiment": "Diuretic activity in normotensive Wistar rat assessed as urinary potassium excretion at 0.1 mg/kg, po administered via gavage after 8 hrs (reference value: 22.39 to 24.21 mmol/L)", "assay_type": "ADME, organism-based", "conditions": "in vivo"}, "[11]": {"experiment": "Anti-urolithic activity in synthetic urine assessed as decrease in absorbance at 0.1 mg/mL after 30 mins relative to control", "assay_type": "functional", "parameters": "scale not given: the % may be the effect or the level left"}, "[12]": {"experiment": "Antioxidant activity assessed as DPPH radical scavenging activity at 100 to 1000 ug/ml after 5 mins", "assay_type": "functional"}, "Rattus norvegicus [13]": {"tested_on": "Rattus norvegicus", "experiment": "Diuretic activity in normotensive Wistar rat assessed as urinary potassium excretion at 0.1 mg/kg, po administered via gavage after 8 hrs in presence of atropine (reference value: 22.39 to 24.21 mmol/L)", "assay_type": "ADME, organism-based", "conditions": "in vivo"}, "Rattus norvegicus [14]": {"tested_on": "Rattus norvegicus", "experiment": "Diuretic activity in normotensive Wistar rat assessed as urine conductivity at 0.1 mg/kg, po administered via gavage after 8 hrs in presence of atropine (reference value: 19.54 +/- 0.98 mS/cm)", "assay_type": "functional"}, "Rattus norvegicus [15]": {"tested_on": "Rattus norvegicus", "experiment": "Diuretic activity in normotensive Wistar rat assessed as urinary sodium excretion at 0.1 mg/kg, po administered via gavage after 8 hrs in presence of atropine (reference value: 61.82 to 80.81 mmol/L)", "assay_type": "functional"}, "Rattus norvegicus [16]": {"tested_on": "Rattus norvegicus", "experiment": "Diuretic activity in spontaneous hypertensive Wistar rat assessed as effect on urinary potassium excretion at 0.1 mg/kg, po administered via gavage for 7 days", "assay_type": "ADME, organism-based", "conditions": "in vivo, 168 h"}, "Rattus norvegicus [17]": {"tested_on": "Rattus norvegicus", "experiment": "Diuretic activity in normotensive Wistar rat assessed as urinary potassium excretion at 0.01 mg/kg, ip […] after 8 hrs (reference value: 22.33 +/- 2.81 mmol/L)", "assay_type": "ADME, organism-based", "conditions": "in vivo"}, "Rattus norvegicus [18]": {"tested_on": "Rattus norvegicus", "experiment": "Diuretic activity in normotensive Wistar rat assessed as urinary sodium excretion at 0.1 mg/kg, ip after 8 hrs (reference value: 81.56 +/- 13.10 mmol/L)", "assay_type": "functional"}, "Rattus norvegicus [19]": {"tested_on": "Rattus norvegicus", "experiment": "Diuretic activity in spontaneous hypertensive Wistar rat assessed as decrease in urinary calcium excretion at 0.1 mg/kg, po administered via gavage for 7 days", "assay_type": "functional, organism-based"}, "Rattus norvegicus [20]": {"tested_on": "Rattus norvegicus", "experiment": "Diuretic activity in normotensive Wistar rat assessed as urinary potassium excretion at 0.1 mg/kg, po administered via gavage after 8 hrs in presence of amiloride (reference value: 22.39 to 24.21 mmol/L)", "assay_type": "ADME, organism-based", "conditions": "in vivo"}, "[21]": {"experiment": "Anti-urolithic activity in synthetic urine assessed as reduction in CaOx crystal formation at 0.1 mg/mL in presence of sodium oxalate after 60 mins by Neubauer counting chamber method relative to control", "assay_type": "functional", "parameters": "scale not given: the % may be the effect or the level left"}, "Rattus norvegicus [22]": {"tested_on": "Rattus norvegicus", "experiment": "Diuretic activity in normotensive Wistar rat assessed as urinary chloride excretion at 0.1 mg/kg, po administered via gavage after 8 hrs (reference value: 135.10 to 143.70 mmol/L)", "assay_type": "functional"}, "Rattus norvegicus [23]": {"tested_on": "Rattus norvegicus", "experiment": "Diuretic activity in normotensive Wistar rat assessed as urinary chloride excretion at 0.1 mg/kg, po administered via gavage after 8 hrs in presence of hydrochlorothiazide (reference value: 135.10 to 143.70 mmol/L)", "assay_type": "functional"}, "Rattus norvegicus [24]": {"tested_on": "Rattus norvegicus", "experiment": "Diuretic activity in normotensive Wistar rat assessed as effect on urinary potassium excretion at 0.1 mg/kg, po administered via gavage for 7 days", "assay_type": "ADME, organism-based", "conditions": "in vivo, 168 h"}, "Rattus norvegicus [25]": {"tested_on": "Rattus norvegicus", "experiment": "Diuretic activity in normotensive Wistar rat assessed as urinary sodium excretion at 0.1 mg/kg, po administered via gavage after 8 hrs in presence of indomethacin (reference value: 61.82 to 80.81 mmol/L)", "assay_type": "functional"}, "Rattus norvegicus [26]": {"tested_on": "Rattus norvegicus", "experiment": "Diuretic activity in normotensive Wistar rat assessed as urine conductivity at 0.01 mg/kg, ip after 8 hrs (reference value: 24.87 +/- 0.54 mS/cm)", "assay_type": "functional"}, "Rattus norvegicus [27]": {"tested_on": "Rattus norvegicus", "experiment": "Diuretic activity in normotensive Wistar rat assessed as urinary chloride excretion at 0.1 mg/kg, po administered via gavage after 8 hrs in presence of atropine (reference value: 135.10 to 143.70 mmol/L)", "assay_type": "functional"}, "Rattus norvegicus [28]": {"tested_on": "Rattus norvegicus", "experiment": "Diuretic activity in spontaneous hypertensive Wistar rat assessed as increase in urinary chloride excretion at 0.1 mg/kg, po administered via gavage for 7 days", "assay_type": "functional, organism-based"}, "Rattus norvegicus [29]": {"tested_on": "Rattus norvegicus", "experiment": "Diuretic activity in normotensive Wistar rat assessed as urinary calcium excretion at 0.1 mg/kg, po administered via gavage after 8 hrs in presence of furosemide (reference value: 5.93 to 6.87 mg/dl)", "assay_type": "functional"}, "[30]": {"experiment": "Toxicity in normotensive Wistar rat assessed as changes in plasma ALT level at 0.1 mg/kg, po administered for 7 days", "assay_type": "organism-based", "conditions": "in vivo, 168 h"}, "Rattus norvegicus [31]": {"tested_on": "Rattus norvegicus", "experiment": "Diuretic activity in normotensive Wistar rat assessed as urinary calcium excretion at 0.01 mg/kg, po administered via gavage after 8 hrs (reference value: 5.93 to 6.87 mg/dl)", "assay_type": "functional"}, "Rattus norvegicus [32]": {"tested_on": "Rattus norvegicus", "experiment": "Diuretic activity in normotensive Wistar rat assessed as urinary chloride excretion at 1 mg/kg, ip […] after 8 hrs (reference value: 103.30 +/- 10.25 mmol/L)", "assay_type": "functional"}, "Rattus norvegicus [33]": {"tested_on": "Rattus norvegicus", "experiment": "Diuretic activity in normotensive Wistar rat assessed as urine conductivity at 1 mg/kg, po administered via gavage after 8 hrs (reference value: 19.54 +/- 0.98 mS/cm)", "assay_type": "functional"}, "[34]": {"experiment": "Toxicity in spontaneous hypertensive Wistar rat assessed as changes in plasma potassium level at 0.1 mg/kg, po administered for 7 days", "assay_type": "organism-based", "conditions": "in vivo, 168 h"}, "Rattus norvegicus [35]": {"tested_on": "Rattus norvegicus", "experiment": "Renal protective activity in spontaneous hypertensive Wistar rat assessed as reduction in hypertension-induced glomerular size at 0.1 mg/kg, po administered via gavage for 7 days by hematoxylin and eosin staining based microscopic analysis", "assay_type": "functional, organism-based"}, "[36]": {"experiment": "Toxicity in spontaneous hypertensive Wistar rat assessed as changes in urinary creatinine at 0.1 mg/kg, po administered for 7 days", "assay_type": "organism-based", "conditions": "in vivo, 168 h"}}, "note": "The source made the active and inactive calls. No cut-off for these calls is given here."}
{"smiles": "C[C@@H]1O[C@@H](Oc2c(-c3ccc(O)cc3)oc3cc(O)cc(O)c3c2=O)[C@H](O)[C@H](O)[C@H]1O", "note": "[AFZELIN]", "values": [{"measurement": "Activity", "setting": "Rattus norvegicus [1]", "value": "Active"}, {"measurement": "Activity", "setting": "Rattus norvegicus [2]", "value": 4.69, "unit": "mg/dL"}, {"measurement": "Activity", "setting": "Rattus norvegicus [3]", "value": 61.35, "unit": "mmol/L"}, {"measurement": "Activity", "setting": "[4]", "value": "Non-Toxic"}, {"measurement": "Activity", "setting": "Rattus norvegicus [5]", "value": 78.12, "unit": "mmol/L"}, {"measurement": "Activity", "setting": "Rattus norvegicus [6]", "value": "53.09 to 56.99", "unit": "mmol/L"}, {"measurement": "Activity", "setting": "Rattus norvegicus [7]", "value": 5.46, "unit": "mg/dL"}, {"measurement": "Activity", "setting": "Rattus norvegicus [8]", "value": "Active"}, {"measurement": "Activity", "setting": "Rattus norvegicus [9]", "value": 51.84, "unit": "mmol/L"}, {"measurement": "Activity", "setting": "Rattus norvegicus [10]", "value": "24.2 to 24.7", "unit": "mmol/L"}, {"measurement": "Activity", "setting": "[11]", "value": 21.54, "unit": "%"}, {"measurement": "Activity", "setting": "[12]", "value": "Active"}, {"measurement": "Activity", "setting": "Rattus norvegicus [13]", "value": 16.83, "unit": "mmol/L"}, {"measurement": "Activity", "setting": "Rattus norvegicus [14]", "value": 19.09, "unit": "mS/cm"}, {"measurement": "Activity", "setting": "Rattus norvegicus [15]", "value": 57.23, "unit": "mmol/L"}, {"measurement": "Activity", "setting": "Rattus norvegicus [16]", "value": "Non-Toxic"}, {"measurement": "Activity", "setting": "Rattus norvegicus [17]", "value": 15.61, "unit": "mmol/L"}, {"measurement": "Activity", "setting": "Rattus norvegicus [18]", "value": 40.93, "unit": "mmol/L"}, {"measurement": "Activity", "setting": "Rattus norvegicus [19]", "value": "Active"}, {"measurement": "Activity", "setting": "Rattus norvegicus [20]", "value": 1.95, "unit": "mmol/L"}, {"measurement": "Activity", "setting": "[21]", "value": 48.88, "unit": "%"}, {"measurement": "Activity", "setting": "Rattus norvegicus [22]", "value": "186.6 to 231.3", "unit": "mmol/L"}, {"measurement": "Activity", "setting": "Rattus norvegicus [23]", "value": 333.4, "unit": "mmol/L"}, {"measurement": "Activity", "setting": "Rattus norvegicus [24]", "value": "Non-Toxic"}, {"measurement": "Activity", "setting": "Rattus norvegicus [25]", "value": 81.55, "unit": "mmol/L"}, {"measurement": "Activity", "setting": "Rattus norvegicus [26]", "value": 26.4, "unit": "mS/cm"}, {"measurement": "Activity", "setting": "Rattus norvegicus [27]", "value": 231.8, "unit": "mmol/L"}, {"measurement": "Activity", "setting": "Rattus norvegicus [28]", "value": "Active"}, {"measurement": "Activity", "setting": "Rattus norvegicus [29]", "value": 5.36, "unit": "mg/dL"}, {"measurement": "Activity", "setting": "[30]", "value": "Non-Toxic"}, {"measurement": "Activity", "setting": "Rattus norvegicus [31]", "value": 5.23, "unit": "mg/dL"}, {"measurement": "Activity", "setting": "Rattus norvegicus [32]", "value": 107.4, "unit": "mmol/L"}, {"measurement": "Activity", "setting": "Rattus norvegicus [33]", "value": 17.48, "unit": "mS/cm"}, {"measurement": "Activity", "setting": "[34]", "value": "Non-Toxic"}, {"measurement": "Activity", "setting": "Rattus norvegicus [35]", "value": "Active"}, {"measurement": "Activity", "setting": "[36]", "value": "Non-Toxic"}]}
